Measurements taken from patent publication US20230265456A1, “GENE THERAPY VECTOR EXPRESSING CYP27A1 FOR THE TREATMENT OF CEREBROTENDINOUS XANTHOMATOSIS” (FUNDACION PARA LA INVESTIGACION MEDICA APLICADA, priority 2020, published 2023).
“Also recorded” adds a separate entry of the source.

Tests used:
Format in all cases: in vivo, mouse
[1] = test system: CTX mice; assay: Bile acid profile in blood (HPLC-MS/MS)
Description: (§1) Blood was centrifuged at 10.000 g for 5 min at room temperature. Plasma was treated with 20 μM butylhydroxytoluene (Sigma) in a N2 atmosphere to protect from oxidation before storage at −80° C. in opaque tubes. Sterol extractions were performed using 100 μl of plasma for quantification of cholestanol and 7αC4 concentrations by HPLC-MS/MS as previously described (Chen W, Chiang J Y L. Gene. 2003; 313:71-82). Bile acid (BA) profiling in serum was carried out after acetonitrile precipitation/extraction (Leníček M, et al. J. Chromatogr. B Anal. Technol. Biomed. Life Sci. 2016; 1033-1034:317-320), using an adaptation (Nytofte N S, et al. J. Med. Genet. 2011; 48:219-225). of a previously described method for BA measurement by HPLC-MS/MS (Ye L, et al. J. Chromatogr. B Anal. Technol. Biomed. Life Sci. 2007; 860:10-17) on a 6420 Triple Quad LC/MS device (Agilent Technologies, Santa Clara, Calif.) (Monte M J, et al. J. Hepatol. 2002; 36:534-542). Alanine aminotransferase (ALT) was quantified in 40 μl plasma samples using a Cobas C311 automated chemistry analyser (Roche Diagnostics, Basel, Switzerland).
In order to determine if gene therapy is able to achieve sustained metabolic correction in CTX mice, the bile acid profile was analyzed in the blood of animals treated with AAV8-EAAT-CYP27A1 for 5 months at 1.5 or 15×10^12 vg/Kg. The optimal dose of CDCA (0.5% chow weight) was maintained for the same period and used for comparison. The inventors observed an increase of primary and secondary bile acids in mice treated with the vector at both doses (FIG. 12), including CDCA. […] This tendency was more evident in the high dose group and included other species such as tauromuricholic acids (TMCA) and taurohyodeoxycholic acid (THDCA). In sharp contrast, treatment with CDCA caused a drastic increase in this bile acid and its derivatives (1000-fold above normal levels), whereas CA and derived species were not restored.

[2] = test system: CTX mice; assay: Hepatomegaly: relative liver weight as percentage of body weight; conditions: 0.5% diet, 3 months
Description: FIG. 11. AAV8-EAAT-CYP27A1 reverses hepatomegaly in CTX mice. The AAV8-EAAT-CYP27A1 vector was administered intravenously to 7 week-old CTX mice at the indicated doses. CDCA was mixed in mouse chow at 0.1 or 0.5%. Untreated CTX and WT littermates were included as a reference. Mice were maintained for 3 months and then they were sacrificed for determination of relative liver weight, represented as percentage of body weight. *p<0.05; ***p<0.001 versus untreated CTX mice. Kruskal-Wallis with Dunn's post-test.
Activation of the xenobiotic response pathways produces hepatomegaly in CTX mice (Repa J J, et al. J. Biol. Chem. 2000; 275:39685-39692).

[3] = test system: Cyp3a11; conditions: 0.5% diet, one month
Description: (§2) RNA was extracted from frozen liver samples using the Maxwell® 16 LEV simplyRNA Cells Kit (Promega) following manufacture's recommendations. Two μg of RNA, treated with DNase I, were retro-transcribed using M-MLV retro-transcriptase (Invitrogen™) and random primers (Life Technologies, Thermo). cDNA was amplified and relative gene expression was determined by quantitative polymerase chain reaction (qPCR) using iQ™ SYBR® Green Supermix reagent (Bio-Rad), in CFX96 Touch™ Real-Time PCR Detection System (Bio-Rad). Table 1 contains the sequence of primers specific for the transgene (CYP27A1) and the mouse genes Cyp7a1, Cyp3a11, Cyp27a1 (exons 1/2), Cyp27a1 (exons 8/9) and 36b4 (used as a housekeeping gene).
(§3) ΔCt values using 36b4 mRNA levels as reference gene were corrected with the efficiency of amplification of each pair of primers and multiplied by 1.000 to facilitate graphical representation.
(§4) To this aim, mRNA was extracted from liver samples collected 2 weeks after vector administration, or one month after initiation of the CDCA treatment. First, the inventors studied the impact of the treatments on the transcriptional control of the endogenous Cyp27a1 gene. Since CTX mice present truncation of the gene at exon 8 out of 9 (Rosen H, et al. J. Biol. Chem. 1998; 273:14805-14812), the inventors employed primers targeting exons 1/2 in order to detect the wild type or truncated transcripts.

[4] = test system: Cyp7a1; conditions: 0.5% diet (therapeutic dose), one month
Description: as §2, §3, §4

[5] = test system: CTX mice; assay: Tolerability: transaminases (ALT), liver histology, body weight, signs of toxicity; conditions: diet 1% of chow weight
Description: Blood was centrifuged at 10.000 g for 5 min at room temperature. Plasma was treated with 20 μM butylhydroxytoluene (Sigma) in a N2 atmosphere to protect from oxidation before storage at −80° C. in opaque tubes. […] Alanine aminotransferase (ALT) was quantified in 40 μl plasma samples using a Cobas C311 automated chemistry analyser (Roche Diagnostics, Basel, Switzerland).

[6] = test system: CTX mice; assay: Cholestanol and 7αC4 in plasma of treated CTX mice (HPLC-MS/MS)
From the text: A mouse strain with truncation of Cyp27a1 exon 8 was obtained from The Jackson Laboratory (Bar Harbor, Me.) (B6.129-Cyp27a1^tm1Et/J, Ref. 009106) (Rosen H, et al. J. Biol. Chem. 1998; 273:14805-14812). Mice homozygous for this mutation (referred hereinafter to as Cyp27a1^−/− or CTX mice) were maintained in a C57BL6/J background by crossing heterozygous individuals. The offspring was genotyped after weaning as indicated by the repository.
Animals were group-housed, up to 6 animals per cage (male or female), provided with food and water ad libitum and maintained with a 12 h light-dark cycle. The average age for initiation of studies was 7 weeks. AAV vectors were administered intravenously by retro-orbital injection in a final volume of 150 μl saline solution. Chenodeoxycholic (CDCA) (Sigma-Aldrich, Ref: C9377-25G) was supplemented in standard chow at 0.1, 0.5 and 1 g CDCA/100 g of chow (0.1, 0.5 and 1.0% CDCA diets, respectively). Blood was collected by submandibular venous puncture using 1.3 ml EDTA tubes (Sarstedt, Nimbrecht, Germany) except for end-time points/terminal procedures, in which cardiac puncture was performed in anesthetized mice. Once animals were euthanized, liver samples were collected for histological and gene expression analyses.
as §1
This is the only CTX animal model available to date (Rosen et al. J. Biol. Chem. 273 (1998) 14805-14812).
Blood was collected 15 days later for determination of cholestanol and 7aC4 in plasma by HPLC/mass spectrometry. […] Of note, neither elevation of liver transaminases nor any other sign of toxicity was detected in any of the treated animals.

[7] = test system: Cyp27a1; assay: Endogenous Cyp27a1 mRNA in liver (primers exons 1/2), qPCR; conditions: liver 2 weeks after vector or one month after initiation of CDCA diet
Description: as §2, §3, §4

[8] = diet 0.1, 0.5 or 1% of chow weight, one month

In the case of `C[C@H](CCC(=O)O)[C@H]1CC[C@H]2[C@@H]3[C@H](O)C[C@@H]4C[C@H](O)CC[C@]4(C)[C@H]3CC[C@]12C` [CDCA, chenodeoxycholic acid], the “CA and derived species in blood” value ([1]; 0.5% chow weight, 5 months) is reported as “not restored”, the “increase in CDCA and its derivatives in blood above normal levels” value ([1]; 0.5% chow weight, 5 months) is reported as 1000 fold and the CDCA in blood ([1]; therapeutic dose (0.5%)) is reported as “marked accumulation”. For the same compound, the “hepatomegaly (relative liver weight)” value [2] was “only partially”, the “Cyp3a11 expression in liver” value [3] was “only a slight reduction” and the “Cyp7a1 expression in liver” value [4] was “drastic reduction of Cyp7a1 expression, below physiological levels; also recorded: virtually abrogated”. The body weight [5] was “weight loss”, the 7αC4 in plasma [6, 8] was “dose-dependent reduction” and the cholestanol in plasma [6, 8] was “dose-dependent reduction”. The “cholestanol levels in plasma” value ([6]; diet 0.5% or higher, one month) was “below WT mice; also recorded: very efficient”, the 7αC4 in plasma ([6]; diet 0.5%, one month, male and female) was “full normalization; also recorded: not completely normalized” and the “therapeutic dose in the CTX model” value ([6]; percent of chow weight, dose required for normalization of 7αC4) was 0.5%. For the same compound, the “transcription of the endogenous Cyp27a1 gene” value [7] was “moderate inhibition”.
